Test results from patent US20240239801A1, “PYRIMIDO[5,4,D]PYRIMIDINE COMPOUNDS, COMPOSITIONS COMPRISING THEM AND USES THEREOF” (Université de Montréal, priority 2021, published 2024).

Tests used:
HCT116 pERK = assay: Phospho-ERK inhibition, AlphaLISA SureFire Ultra p-ERK 1/2; assay type: cell-based, human; conditions: FIG. 1; RAS-mutant HCT116 cells
In short: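 Cells plated in RPMI-1640 with 5% FBS, held overnight, then exposed 1 h to ten-point compound dilutions (top 30 or 10 μM down to 0.33 nM; 0.5% DMSO). Lysates read for p-ERK1/2 (Thr202/Tyr204) by AlphaLISA; % inhibition relative to DMSO after subtracting a 1 μM trametinib background; IC50 from four-parameter fit.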

[1] = test system: RAS-mutant HCT-116 cells pERK/pMEK; assay: Immunoblot analysis of pERK and pMEK; assay type: cell-based, human; conditions: FIG. 2, 1 h treatment
Procedure: For immunoblotting analysis, 500,000 HCT-116 cells were plated in 1 mL of complete RPMI-1640 growth medium in 24-well flat-bottomed transparent dishes (Costar). Cells were maintained overnight at 37° C. under 5% CO2 before treatment with compounds' dilution series for one hour. Cells were then washed once in PBS and lized in 250 μL of Igepal Lysis Buffer (50 mM Tris-HCl pH 7.5, 150 mM NaCl, 1% Igepal-CA630, 1 mM EDTA, 10% Glycerol) supplemented with Leupeptin, Aprotinin, PMSF, phosphatase inhibitor cocktail (Sigma) and Na3VO4 at 4° C. for 15 minutes with gentle rocking. Cell extracts were then cleared by centrifugation at 20,000 g at 4° C. for 10 minutes. Cleared lysates were then transferred on ice in fresh tubes and then boiled in sample loading buffer (100 mM Tris-HCl pH 6.8, 4% SDS, 0.2% bromophenol blue, 20% glycerol, 200 mM β-mercaptoethanol) for 5 minutes prior to fractionation by SDS-PAGE and transfer to nitrocellulose membranes (PALL). […]

CCCS(=O)(=O)Nc1ccc(F)c(C(=O)c2c[nH]c3ncc(Cl)cc23)c1F [PLX4720, reference compound]
YMIN of pERK IC50 dose response curve (HCT116 pERK): ~−600%
paradoxical induction of pERK or pMEK signaling (immunoblot) [1]: induces the pathway
